# How the values were obtained:
# Type in all cases: cell-based, human
# [1] = system: RPE cells; experiment: EdU incorporation assay of nascent DNA synthesis in RPE cells
# Procedure: (§1) FIG. 11. GRAND editing mediates precise large insertion in non-dividing cells. a, The proliferation of RPE cells at 6 h, 12 h, 24 h, 48 h after treated with 1 or 2.5 μM Palbociclib, or 100, 200, 400 ng/mL Nocodazole was determined by cell counting. b, The cell cycles of RPE cells were determined by propidium iodide staining. c, Detection of the nascent DNA synthesis in RPE cells by 5-ethynyl-2′-deoxyuridine (EdU) incorporation assay. The proportions of EdU-labeled positive cells were determined by flow cytometry. d, A 100 bp DNA fragment was inserted at EGFP (595-647) site in non-dividing RPE cells using GRAND editing. The accurate editing and imperfect events were quantified by deep sequencing. Mean±s.d. of n=3 independent biological replicates for a, b, d, and n=3-5 independent biological replicates for c.
# (§2) To determine whether GRAND editing-mediated targeted insertion is cell cycle independent, we used small molecule drugs to arrest the cell cycle of human retinal pigment epithelium (RPE) cell line. Palbociclib, a Cdk4 and Cdk6 inhibitor, effectively arrests cells in G1 phase. […] Next, we conducted the GRAND editing on RPE cells with Palbociclib or Nocodazole treatment.
# [2] = system: RPE cells; experiment: Proliferation of RPE cells by cell counting; details: 100-400 ng/ml
# Procedure: as §1, §2
# [3] = system: RPE cells; experiment: Cell cycle of RPE cells, propidium iodide staining, flow cytometry
# Procedure: as §1, §2
smiles,measurement,setting,value
COC(=O)Nc1nc2ccc(C(=O)c3cccs3)cc2[nH]1 [Nocodazole],global DNA replication (EdU incorporation),[1]; at 24-48 hours,near fully inhibited replication
same,global DNA replication (EdU incorporation),[1]; at 12 hours,significantly suppressed global DNA replication
same,growth of RPE cells,[2],fully inhibited
same,cell cycle arrest,[3],arrest at G2 phase
